Reference: BigSolDB 2.1

Clc1ncnc2[nH]ccc12
solubility (mole fraction)
Settings | 278.15 K | 283.15 K | 288.15 K | 293.15 K | 298.15 K | 303.15 K | 308.15 K | 313.15 K | 318.15 K | 323.15 K
in THF | 0.0461 | 0.0501 | 0.0544 | 0.0594 | 0.0644 | 0.0699 | 0.0757 | 0.0818 | 0.0881 | 0.0954
in acetone | 0.0146 | 0.0165 | 0.0187 | 0.021 | 0.0238 | 0.0265 | 0.0296 | 0.0331 | 0.0368 | 0.0409
in acetonitrile | 0.00218 | 0.00277 | 0.00338 | 0.00413 | 0.00502 | 0.00615 | 0.00736 | 0.00881 | 0.0104 | 0.0124
in ethanol | 0.00849 | 0.0098 | 0.0113 | 0.0131 | 0.0151 | 0.0174 | 0.0199 | 0.0225 | 0.0256 | 0.0291
in ethyl acetate | 0.0132 | 0.0151 | 0.0172 | 0.0194 | 0.0218 | 0.0246 | 0.0274 | 0.0307 | 0.034 | 0.0376
in isopropanol | 0.00973 | 0.0113 | 0.0131 | 0.0151 | 0.0174 | 0.0198 | 0.0226 | 0.0258 | 0.0291 | 0.0328
in methanol | 0.0065 | 0.00781 | 0.0093 | 0.011 | 0.013 | 0.0152 | 0.0177 | 0.0205 | 0.0236 | 0.0272
in n-butanol | 0.0122 | 0.0139 | 0.0157 | 0.0179 | 0.0202 | 0.0227 | 0.0254 | 0.0285 | 0.0317 | 0.0354
in n-heptane | 0.000583 | 0.00075 | 0.00095 | 0.0012 | 0.0015 | 0.00187 | 0.00229 | 0.00281 | 0.00343 | 0.00415
in n-hexane | 0.000393 | 0.000511 | 0.000652 | 0.000851 | 0.00106 | 0.00132 | 0.00165 | 0.00202 | 0.0025 | 0.00306
in n-propanol | 0.0098 | 0.0114 | 0.0134 | 0.0155 | 0.018 | 0.0205 | 0.0235 | 0.0269 | 0.0305 | 0.0347
in toluene | 0.000808 | 0.000993 | 0.00124 | 0.00153 | 0.00186 | 0.00225 | 0.00272 | 0.00324 | 0.00387 | 0.00461
